Reference: US7812142B2, “Pentose derivatives as anti-hyperglycemic drugs” (Yissum Research Development Company of the Hebrew …, priority 2002, dated 2010)
Each block holds one molecule with its values, some of them ahead of it.

Experiments:
[1] = tested on: streptozotocin-diabetic mice; experiment: Glucose tolerance test (GTT) of diabetic mice; format: in vivo, mouse
Procedure: FIG. 14: Glucose tolerance test (GTT) of diabetic mice treated with sesame oil or EH-36 for 9 days, as described in the legend to FIG. 12. On the morning of the 10th day and following an overnight fast the mice received glucose (2 gr/Kg body weight) by i.p. injection, Blood glucose was determined for 3 hr at 30 min intervals. The glucose data were plotted for each animal and the area under the curve (AUC) was calculated.
In another set of experiments similar diabetic mice were treated with the oil or EH-36 (1.5 mg, s.c. twice a day) for 9 days. On the morning of the 10th day and following an overnight fast the mice were subjected to a glucose tolerance test (GTT). The mice received D-glucose by i.p. injections (2 gr/kg body weight). Blood glucose as monitored for 3 hr at 30 min intervals.

Solubility of EH-36 = format: physicochemical; settings: e.g., DMSO, ethanol and oil
[2] = tested on: glucose uptake in cultured cells; experiment: In vitro glucose uptake / hexose transport in cultured cells with xylose derivatives (Table 2); format: cell-based; settings: for EC50 / ECmax: EC = Effective concentration
Procedure: Table 2 summarizes in vitro results obtained with some of these newly synthesized xylose derivatives.
(§1) Uptake assay of the tritiated glucose analogue, 2-deoxy-D-glucose, is routinely performed as described in [Sasson, S. and Cerasi, E. (1986) J. Biol. Chem. 261, 16827-16833].
All new compounds are screened and tested first in various insulin-sensitive cell cultures used routinely in the laboratory (skeletal muscle and adipose cell lines). In addition these drugs were tested in non-insulin-sensitive cells such as primary cultures of bovine and porcine vascular endothelial and smooth muscle cells. Active compounds were tested ex-vivo on isolated rat soleus muscles. All cell cultures and tissues were maintained under hyperglycemic condition prior to the addition of the test compounds. Dose-response and time-course experiments determine which of the derivatives are subsequently tested in animal models. For each potent compound the total cell content and plasma membrane abundance of GLUT-1 and GLUT-4 was determined, as described above. The same biotinylation technique was employed to determine the total and plasma membrane content of both transporters in isolated mouse or rat soleus muscles treated with potent compounds.

non-diabetic mice = experiment: Blood glucose level of non-diabetic mice; settings: mouse, in vivo
[3] = tested on: streptozotocin-diabetic C57/black mice; experiment: Anti-hyperglycemic activity in streptozotocin-diabetic mice; format: in vivo, mouse
Procedure: FIG. 12: Anti-hyperglycemic activity of EH-36 in streptozotocin-diabetic mice. Mice were treated with EH-36 or the vehicle alone (sesame oil, bold lines), and their blood glucose levels determined at the indicated time intervals. Male C57/black mice were made hyperglycemic by 5 repeated daily injections of streptozotocin (i.p. 50 mg/Kg body weight). EH-36 was dissolved in sesame oil (4 mg/ml) and injected s.c (400 μg) twice a day.
FIG. 13: Anti-hyperglycemic activity of EH-36 in streptozotocin-diabetic mice. Mice were treated with EH-36 (as described in the legend to FIG. 12) or the vehicle alone (sesame oil, bold lines), and their blood glucose levels were determined at the indicated time intervals. C57/black mice were made diabetic as described in the legend to FIG. 12.
EH-36 was tested for its potential anti-hyperglycemic activity in an animal model of diabetes. Male C57/black mice were made diabetic by daily i.p. injections of streptozotocin (50 mg/Kg) for 5 days. After 10 days the fasting blood glucose of these mice was above 300 mg/dL as compared to 80-130 mg/dL of control mice. Unlike a single and high dose injection of streptozotocin, which produces an animal model for Type 1 diabetes, the repeated low-dose injections produce a model that more closely resembles Type 2 diabetes. (Fraser, R. B., Rowden, G., Colp, P, And Wright, J. R. Jr.: Immunophenotyping of insulitis in control and essential fatty aid deficient mice treated with multiple low-dose streptozotocin. Diabetologia, 40:1263-1268, 1997).
EH-36 was dissolved in sesame oil (4 mg/ml) and injected into Streptozotocin-diabetic mice (s.c. 400 μg, twice a day at 08 and 18 hrs). Blood was withdrawn from the tip of the tails and glucose levels were measured with a glucometer.

[4] = Serum level of EH-36 in rats by HPLC; format: in vivo, rat; settings: 16 mg/day in sesame oil s.c. for 3 days, serum on fourth day, preliminary
Procedure: Extract aliquots (30 μl) were analyzed by reverse phase HPLC in a 150×4.6 mm, 3μ ODS Hypersil® column (Thermohypersil-Keystone, Bellfonte, Pa.) connected to an L-4200 UV-Vis detector (272 nm). Elution was at a flow rate of 1.5 ml/min with water and acetonitrile gradient: the initial solvent mixture was 30% water:70% acetonitrile:. A convex gradient over 20 min then followed to 100% acetonitrile.
The pharmacokinetic parameters of EH-36 were determined by the following procedure. Rats (3 per group per time point) were anesthetized and their blood collected from the portal vein. The serum was separated and extracted with chloroform. The extract was dried and redissolved in a small volume of chloroform and separated by HPLC and identified by UV absorption. The animals were treated with 16 mg/day (in sesame oil, s.c.) for 3 days. On the fourth day the animals were sacrificed and serum was isolated, extracted and separated by HPLC. There was a distinct peak of EH-36 corresponding to 1.01 mg/ml EH-36. To verify that this peak corresponds to EH-36 a known quantity of this compound was added to a serum sample taken from the EH-36-treated rats. Following extraction and HPLC analysis the only peak that was intensified was that corresponding to EH-36. […]

L6 myotubes = experiment: dGlc uptake assay in L6 myotubes; format: cell-based, rat; settings: for effect of PI3-kinase inhibitor LY-249002 on the substance's stimulation of hexose transport: 60 μM inhibitor, 23.0 mM glucose (FIG. 11A), EH-40 data not shown
Procedure: (§2) FIG. 10: Western blot depicting effect of 3-O-propyl-D-xylose (EH-114), and 1,3-O-dimethylxylopyranoside (EH-101) on the total cell content and plasma membrane abundance of GLUT-4 in the absence or presence of insulin. L6 myotubes were maintained for 48 hr at 23 mM Glucose. The cells were than washed and received fresh medium containing the indicated additions and incubated for additional […]. Insulin was added during the last 30 min of incubation before the dGlc uptake assay.
FIG. 11A: Effect of LY-249002, a PI3-kinase inhibitor, on insulin, D-xylose, EH-101 and EH-114-mediated glucose uptake. L6 myotubes were treated as described in the legend to FIG. 10. The glucose concentration in the culture medium was 23.0 mM. The concentration of LY-294002 was 60 μM. At the end of incubation the cells were taken for the standard dGlc uptake assay. Mean±SEM, n=3.
(§3) GLUT-1 and GLUT-4 mediate glucose entry into L6 myotubes. It is established that GLUT-4 is translocated effectively and rapidly to the plasma membrane upon insulin treatment. The inventors looked at the effect of 3-O-propyl-D-xylose EH-114) and 1,3-O-dimethylxylopyranoside (EH-101) on the total cell content and plasma membrane abundance of these transporters in the absence or presence of insulin. L6 myotubes were maintained at 5.0 or 23.0 mM glucose for 48 hr and EH-114 and EH-101 were present during the last 24 hr. The cells were then taken for the standard [^3H]-2-deoxy-D-glucose uptake assay and for the biotinylation procedure for determining the amount of GLUT-1 and GLUT-4 in the plasma membrane. High glucose levels decreased the hexose transport rate by ˜50%. Insulin augmented the transport nearly 2-fold in both cases. EH-114 and EH-101 increased the transport rate 2-3-fold in the absence of insulin. Together with insulin the uptake rate was increased nearly 3-fold.
The inventors also tested the hypothesis that the active D-xylose derivatives augment the hexose transport capacity in L6 myotubes by translocating GLUT-4 to the plasma membrane not via the common insulin-regulated pathway. For this experiment, a selective inhibitor of the enzyme PI3-kinase, LY-249002, which is a key enzyme in the cellular transduction mechanism of insulin, was utilized. […] These findings also agree well with the longer onset of action of these derivatives as compared to the rapid action of insulin. Similar results were obtained when LY-249002 was present together with the derivatives throughout the entire incubation period.
as §1

PKB = PKB phosphorylation immunoblot in L6 myotubes; format: cell-based, rat; settings: 23.0 mM glucose; 100 nM insulin, 20 mM xylose, 5 mM EH-114 or 250 μM EH-40, up to 24 hrs (FIG. 11B)
Procedure: FIG. 11B: Effects of insulin D-xylose and xylose derivatives on PKB phosphorylation. L6 myotubes were maintained at 5.5 mM or 23.0 mM glucose. The latter were treated with 100 nM insulin, 20 mM xylose, 5 mM EH-114 or 250 μM EH-40 up to 24 hrs. At the indicated times treated myotubes were collected, homogenized and lysed and the soluble protein fraction was isolated. The control myotubes were collected at the end of the 24 hr incubation period. Equal amounts of proteins of the various treated myotubes were separated on SDS-PAGE and immunoblotted with a specific antibody against phospho-Axt1/PKBα (Ser473). In order to test whether xylose derivative activate insulin transduction elements downstream of PI3K, the inventors tested the state of PKB phosphorylation, as shown in FIG. 11B.

GLUT-4 = experiment: Cell surface biotinylation and western blot of GLUT-4 in L6 myotubes; format: cell-based, rat; settings: for translocation of GLUT-4 to the plasma membrane: L6 myotubes, xylose derivatives in the absence of insulin, insulin 500 nM (FIG. 10)
Procedure: as §2, §3
Surface biotinylation of the cells was performed as previously described [Sasson et al (1997), Diabetologia, 40, 30-398].

GLUT-1 = experiment: Cell surface biotinylation and western blot of GLUT-1 in L6 myotubes; format: cell-based, rat; settings: data not shown
Procedure: as §3
FIG. 10 presents the western blots showing the results of such a representative experiment. Under hyperglycemic conditions the total cell content of GLUT-4 was reduced as well as its plasma membrane abundance [lanes 1 & 2 for Total cell content and PM (plasma membrane) fractions]. […]

EC50 [2]: 0.002 mM | serum concentration [4]: 1.01 mg/mL
Molecule: CCSC(SCC)[C@@H]1OC(c2ccccc2)O[C@@H]2COC(c3ccccc3)O[C@@H]21 (stereo partly drawn) [EH-36, 2,4:3,5 di-O-benzylidene-D-xylose-diethyl-dithioacetal]
average AUC of GTT ([1]; 1.5 mg s.c. twice a day for 9 days, glucose 2 gr/kg i.p. on 10th day, ±SEM): 6.42±1.62 mg glucose/ml/hr | improvement of glucose clearance ([1]; following a 9-day treatment): ~50% | solubility (Solubility of EH-36): very limited solubility in most common organic solvents | Fold Increase of Glucose Uptake [2]: 2.0 fold | onset of action [2]: 24 to 48 h | time to maximal stimulatory effects [2]: ≤ 48 h | ECmax [2]: 10 µM | potency relative to D-xylose ([2]; more potent than xylose): 2000 fold | blood glucose level of non-diabetic mice (non-diabetic mice): Neither EH-36 nor the vehicle changed significantly | blood glucose level ([3]; 400 μg s.c. in sesame oil twice a day (FIG. 13)): reduced their blood glucose level to the normoglycemic range | duration of effect after treatment ([3]; after the last injection): at least 3 weeks | blood glucose levels after treatment stopped ([3]; left untreated for four additional weeks after 9-day injection): 250 to 350 mg/dL | appearance of animals after treatment stopped ([3]; untreated for four additional weeks): looked normal and healthy

effect of PI3-kinase inhibitor LY-249002 on the substance's stimulation of hexose transport (L6 myotubes): failed to affect | EC50 [2]: 3 mM
Molecule: CCCO[C@@H]([C@H](O)CO)[C@@H](O)C=O [EH-114, 3-O-propyl-D-xylose]
increase of uptake rate together with insulin (L6 myotubes; L6 myotubes, compound during last 24 hr plus insulin): ~3 fold | Fold Increase of Glucose Uptake [2]: 2.6 fold | ECmax [2]: 4500 µM | duration of activity following removal from the culture media ([2]; after being washed from cell cultures): 24 h | PKB phosphorylation (PKB): failed to induce significant phosphorylation | total cell content of GLUT-4 (GLUT-4; L6 cells exposed to 23.0 mM glucose (FIG. 10)): increased the total content of the transporter | translocation of GLUT-4 to the plasma membrane (GLUT-4): induced significant translocation of GLUT-4 to the plasma membrane

effect of PI3-kinase inhibitor LY-249002 on the substance's stimulation of hexose transport (L6 myotubes): eliminated the stimulatory effect
Molecule: Insulin: insulin, hormone used as positive control for glucose transport stimulation [reference compound]
effect on GLUT-1 (blots with anti GLUT-1 antibody) (GLUT-1): no effect | augmentation of transport by insulin (L6 myotubes; at 5.0 and 23.0 mM glucose): ~2 fold | PKB phosphorylation (PKB): prominent, but transient phosphorylation | translocation of GLUT-4 to the plasma membrane (GLUT-4): translocation of GLUT-4 to the plasma membrane
